Measured values taken from patent publication US20210046162A1, “Teriparatide Use for Bone Stress Fractures/Reactions” (University of South Carolina, priority 2019, published 2021).
Read-outs that look alike come from different tables or passages of the source. Values belong to the molecule of their own block, whether it stands above or below them.

Columns and labels:
distal radial fracture = conditions: cited from earlier work; for time to radiographic healing: placebo 9.1 weeks
tibial fractures = conditions: rats, after 20 and 40 days of healing, cited from earlier work
[1] = in vivo, sc
From the text: (§1) As used herein “peak concentration (CMAX) of PTH peptide in a blood plasma”, “area under concentration vs. time curve (AUC) of PTH peptide in a blood plasma”, “time to maximal plasma concentration (tMAX) of PTH peptide in a blood plasma” are pharmacokinetic parameters known to one skilled in the art. […] The “concentration vs. time curve” measures the concentration of PTH peptide in a blood serum of a subject vs. time after administration of a dosage of PTH peptide to the subject either by intranasal, intramuscular, subcutaneous, or other parenteral route of administration. “CMAX” is the maximum concentration of PTH peptide in the blood serum of a subject following a single dosage of PTH peptide to the subject. “TMAX” is the time to reach maximum concentration of PTH peptide in a blood serum of a subject following administration of a single dosage of PTH peptide to the subject. […] Mean changes of teriparatide acetate (in picograms per liter) in plasma after a single subcutaneous injection of teriparatide (filled circle 56.5 μg, filled triangle 28.2 μg) to 360 min. Bars represent standard deviation.

stress fractures (DTSFs) = assay: Teriparatide therapy of stress fractures in NCAA collegiate athletes (FIG. 8); type: in vivo, humans; conditions: 20 mcg dose, at least 28 days
From the text: The current disclosure has administered teriparatide at the 20 mcg dose to young adult NCAA collegiate athletes who have DTSFs. Our promising clinical findings, see, e.g., FIG. 8, have led us to hypothesize that teriparatide will have a positive effect on bone healing and return to duty among service members with DTSFs. While a dosage of 20 mcg has been found effective, other dosages are considered within the scope of this application such as ranges from 5-50 mcg, 10-40 mcg, 15-35 mcg, 20-30 mcg, etc. In one embodiment, the preferred range is 10 mcg-40 mcg.
The PTH peptide can also be administered in conjunction with other therapeutic agents such as bisphonates, calcium, vitamin D, estrogen or estrogen-receptor binding compounds, selective estrogen receptor modulators (SERMs), bone morphogenic proteins and/or calcitonin. In one embodiment, 500 mg calcium may be administered daily for the duration of treatment with teriparatide. Vitamin D may also be administered along with teriparatide. Unless a patient is hypercalemic, defined as a total serum calcium concentration >10.4 mg/dL (>2.60 mmol/L) or ionized serum calcium >5.2 mg/dL (>1.30 mmol/L), calcium would be used as part of the treatment regimen. For patients with low vitamin D concentrations, defined as a 25(OH)D concentration of 12 to 20 ng/mL (30 to 50 nmol/L), Vitamin D may also be administered during treatment descried herein. […]

[2] = Plasma teriparatide concentrations after a single subcutaneous injection (FIG. 9); conditions: sc
From the text: as §1

[3] = cited from earlier work; for bioavailability: after subcutaneous injection
osteosarcoma = conditions: over 16,000 unique patients, post-market analysis; cited from earlier work

AUCinf ([1]; 28.2 ug): 28.07 ± 2.47 ng/min/mL | AUClast ([1]; 28.2 ug): 25.84 ± 3.18 ng/min/mL | AUCinf ([1]; 56.5 ug): 52.73 ± 10.03 ng/min/mL | AUClast ([1]; 56.5 ug): 49.91 ± 11.33 ng/min/mL | time after the injection at which Cmax was achieved ([1]; 56.5 ug): 1 h | Cmax ([2]; 28.2 ug): 0.193 ± 0.0353 ng/mL | Tmax ([2]; 28.2 ug): 0.9 h | half-life ([2]; 28.2 ug): 1.16 ± 0.217 h | Cmax ([2]; 56.5 ug): 0.338 ± 0.134 ng/mL | Tmax ([2]; 56.5 ug): 0.875 h | half-life ([2]; 56.5 ug): 1.29 ± 0.587 h
Molecule: CC[C@H](C)[C@H](NC(=O)[C@H](CCC(=O)O)NC(=O)[C@H](CO)NC(=O)[C@@H](NC(=O)[C@@H](N)CO)C(C)C)C(=O)N[C@@H](CCC(N)=O)C(=O)N[C@@H](CC(C)C)C(=O)N[C@@H](CCSC)C(=O)N[C@@H](Cc1cnc[nH]1)C(=O)N[C@@H](CC(N)=O)C(=O)N[C@@H](CC(C)C)C(=O)NCC(=O)N[C@@H](CCCCN)C(=O)N[C@@H](Cc1cnc[nH]1)C(=O)N[C@@H](CC(C)C)C(=O)N[C@@H](CC(N)=O)C(=O)N[C@@H](CO)C(=O)N[C@@H](CCSC)C(=O)N[C@@H](CCC(=O)O)C(=O)N[C@@H](CCCN=C(N)N)C(=O)N[C@H](C(=O)N[C@@H](CCC(=O)O)C(=O)N[C@@H](Cc1c[nH]c2ccccc12)C(=O)N[C@@H](CC(C)C)C(=O)N[C@@H](CCCN=C(N)N)C(=O)N[C@@H](CCCCN)C(=O)N[C@@H](CCCCN)C(=O)N[C@@H](CC(C)C)C(=O)N[C@@H](CCC(N)=O)C(=O)N[C@@H](CC(=O)O)C(=O)N[C@H](C(=O)N[C@@H](Cc1cnc[nH]1)C(=O)N[C@@H](CC(N)=O)C(=O)N[C@@H](Cc1ccccc1)C(=O)O)C(C)C)C(C)C [teriparatide]
time to healing compared with placebo group (distal radial fracture; 20 mcg daily for 8 weeks): shorter | time to radiographic healing (distal radial fracture; 20 mcg daily for 8 weeks): 7.4 weeks | improvement in healing time compared with placebo (distal radial fracture; 40 mcg daily for 8 weeks): not a statistically significant improvement | time to radiographic healing (distal radial fracture; 40 mcg daily for 8 weeks): 8.8 weeks | mechanical strength of fractures (tibial fractures; 60 and 200 kg/day once daily): increased | callus quantity (tibial fractures; once daily): increased | healing of the subjects' stress fractures (stress fractures (DTSFs)): resulted in healing | bioavailability [3]: 95% | Absolute bioavailability ([3]; subcutaneous injection): 95% | half-life ([3]; subcutaneous injection): approximately 1 hour | half-life after subcutaneous injection ([3]; subcutaneous injection): approximately 1 hours | time to peak concentrations ([3]; subcutaneous injection): 30 min | reported cases of osteosarcoma in humans (osteosarcoma): have not been any reported cases

Molecule: PTH 1-84: full-length human parathyroid hormone, an 84 amino acids peptide with N-terminal and C-terminal regions
bioavailability [3]: 55% | duration of action ([3]; compared with PTH 1-34): longer | half-life after subcutaneous injection ([3]; subcutaneous injection): approximately 2.5 hours
